4 molecules from US8895588B2, “Pyrazole compound” (Takeda Pharmaceutical Company Limited, priority 2009, dated 2014) can be followed below.

Broadly, the IC50 is the concentration needed to halve the response being measured. High values mean weaker potency, low ones greater potency.

One data set concerns anesthetized rat. As to the kind of experiment: Histamine-stimulated acid secretion suppression test using anesthetized rat. Type of data set: in vivo. The conditions noted are these: 1 mg/kg i.v., anesthetized SD rat, 3 hr after histamine. The method, then: Histamine-Stimulated Acid Secretion Suppression Test Using Anesthetized Rat 7-Week-old Jcl: male SD rats were fasted for about 24 hr and used for the experiment. Under urethane (1.2 g/kg, i.p.) anesthesia, the abdomen was incised along the middle-spinal line and the pyloric ring was ligated. Test compound (1 mg/kg) was intravenously administered, the abdominal incision was sutured, and histamine dihydrochloride (30 mg/kg/10 mL) dissolved in physiological saline was subcutaneously administered. After 3 hr from histamine administration, the rats were killed with carbon dioxide gas. The stomach was isolated and the accumulated gastric fluid was collected. The gastric fluid amount was measured and the acid level was measured using acid titration apparatus COM-555 (HIRANUMA SANGYO Co., Ltd.), and the product thereof was taken as the acid secretion level. The acid secretion suppressive rate of the test compound was determined from the comparison with control.

A further data set addresses T1, H^+/K^+-ATPase (Sus scrofa, UniProt P19156).
T1 construct: The obtained microsomal fraction was used as proton, potassium-adenosine triphosphatase preparations; from tissue; host or cells: swine stomach, microsomal fraction of gastric mucosa
As to the kind of experiment: Proton potassium-adenosine triphosphatase (H+,K+-ATPase) inhibitory activity test. The conditions noted are these: swine gastric mucosa microsomal fraction, pH 6.5, 37° C. Type of data set: biochemical. The method, then:
Proton Potassium-Adenosine Triphosphatase (H^+,K^+-ATPase) Inhibitory Activity Test According to the method of Wallmark et al. [Biochim. Biophys. Acta, 728, 31 (1983)], a microsomal fraction of gastric mucosa was prepared from the stomach of swine. First, the stomach was removed, washed with tap water, and immersed in 3 mol/L sodium chloride, and the surface of the mucosa was wiped with a paper towel. The gastric mucosa was removed, minced, and homogenized in a 0.25 mol/L sucrose solution (pH 6.8) containing 1 mmol/L EDTA and 10 mmol/L tris-hydrochloric acid using polytron (Kinematica). The obtained homogenate was centrifuged at 20,000×g for 30 min and the supernatant was centrifuged at 100,000×g for 90 min. The precipitate was suspended in 0.25 mol/L sucrose solution, the suspension was superimposed on a 0.25 mol/L sucrose solution containing 7.5% Ficoll, and centrifuged at 100,000×g for 5 hr. The fraction containing the interface between the both layers was recovered, and centrifugally washed with 0.25 mol/L sucrose solution. The obtained microsomal fraction was used as proton, potassium-adenosine triphosphatase preparations. To 50 mmol/L HEPES-Tris buffer (5 mmol/L magnesium chloride, 10 mmol/L potassium chloride, 10 μmol/L valinomycin, pH=6.5, 40 μL) containing 2.5 μg/mL enzyme preparation based on the protein concentration was added a test compound (5 μL) dissolved in 10% dimethyl sulfoxide solution, and the mixture was incubated at 37° C. for 30 min. A 2 mmol/L adenosine triphosphate tris salt solution (50 mmol/L HEPES-tris buffer (5 mmol/L magnesium chloride, pH 6.5), 5 μL) was added to start an enzyme reaction. The enzyme reaction was performed at 37° C. for 20 min, and then a malachite green solution (a mixture of 0.12% malachite green sulfate (2.5 mol/L) solution, 7.5% ammonium molybdate and 11% Tween 20 at a ratio of 100:25:2, 15 μL) was added to stop the reaction. The reaction mixture was stood at room temperature for 15 min, and the resulting reaction product of inorganic phosphorus and malachite green was measured by colorimetric quantification at a wavelength of 610 nm. In addition, the amount of inorganic phosphoric acid in a reaction solution free of potassium chloride was also measured in the same manner, and the value was extracted from that in the presence of potassium chloride, whereby the proton, potassium-adenosine triphosphatase activity was measured. The inhibitory rate (%) was determined from the activity value of the control and that at each concentration of the test compound, and 50% inhibitory concentration (IC50) to proton, potassium-adenosine triphosphatase was determined.

The test system of a further data set is HepG2. As to the kind of experiment: ATP content test. The conditions noted are these: HepG2, 100 μM, culture for one day, relative value to control (free of compound). Type of data set: cell-based, human. The method, then:
(§1) ATP Content Test Human hepatocellular liver carcinoma cell line HepG2 (ATCC No. HB-8065) was maintained and subcultured at 5% CO2, 37° C. in a Dulbecco's modified Eagle medium (DMEM; Invitrogen) medium containing 10% fetal bovine serum (FBS; TRACE SCIENTIFIC LTD.), 1 mmol/L sodium pyruvate (Invitrogen), 2 mmol/L L-glutamine (Invitrogen), 50 IU/mL penicillin (Invitrogen), 50 μg/mL streptomycin (Invitrogen). Test reagent was prepared to 10 mM with DMSO, and diluted with DMEM medium containing 0.5% FBS, 1 mmol/L sodium pyruvate, 2 mmol/L L-glutamine, 50 IU/ml penicillin, 50 μg/mL streptomycin to the DMSO final concentration of 0.1%. HepG2 (2×10^4 cells/well) was cultured on a 96 well white plate (Costar) together with the test reagent at 5% CO2, 37° C. After culture for one day, the intracellular ATP content was measured with ATPLite™ (PerkinElmer Life Sciences). The results are shown in Table 1 as relative value (%) to the control (free of compound) at 100 μm (n≧3, mean±SD).

The next data set deals with Caspase-3/7. Put plainly: Caspase-3/7 activity test. Type of data set: cell-based, human. The conditions noted are these: HepG2, 100 μM, culture for one day, relative to staurosporine maximum as 100%, no test reagent as 0%. The procedure: as §1, with “Human” for “ATP Content Test Human”, “mean±SD). Caspase-3/7 Activity Test The cells were cultured for one day according to a method similar to the method of Experimental Example 3, and the intracellular Caspase-3/7 activity was measured by Caspase-Glo 3/7 Assay (Promega). The results are shown in Table 1 as relative activity (%) of each test reagent when the maximum value of Caspase-3/7 activity on exposure to staurosporine as 100%, and activity without addition of test reagent as 0% (n≧3, mean±SD).” for “mean±SD).”

T1 sequence (P19156 whole entry): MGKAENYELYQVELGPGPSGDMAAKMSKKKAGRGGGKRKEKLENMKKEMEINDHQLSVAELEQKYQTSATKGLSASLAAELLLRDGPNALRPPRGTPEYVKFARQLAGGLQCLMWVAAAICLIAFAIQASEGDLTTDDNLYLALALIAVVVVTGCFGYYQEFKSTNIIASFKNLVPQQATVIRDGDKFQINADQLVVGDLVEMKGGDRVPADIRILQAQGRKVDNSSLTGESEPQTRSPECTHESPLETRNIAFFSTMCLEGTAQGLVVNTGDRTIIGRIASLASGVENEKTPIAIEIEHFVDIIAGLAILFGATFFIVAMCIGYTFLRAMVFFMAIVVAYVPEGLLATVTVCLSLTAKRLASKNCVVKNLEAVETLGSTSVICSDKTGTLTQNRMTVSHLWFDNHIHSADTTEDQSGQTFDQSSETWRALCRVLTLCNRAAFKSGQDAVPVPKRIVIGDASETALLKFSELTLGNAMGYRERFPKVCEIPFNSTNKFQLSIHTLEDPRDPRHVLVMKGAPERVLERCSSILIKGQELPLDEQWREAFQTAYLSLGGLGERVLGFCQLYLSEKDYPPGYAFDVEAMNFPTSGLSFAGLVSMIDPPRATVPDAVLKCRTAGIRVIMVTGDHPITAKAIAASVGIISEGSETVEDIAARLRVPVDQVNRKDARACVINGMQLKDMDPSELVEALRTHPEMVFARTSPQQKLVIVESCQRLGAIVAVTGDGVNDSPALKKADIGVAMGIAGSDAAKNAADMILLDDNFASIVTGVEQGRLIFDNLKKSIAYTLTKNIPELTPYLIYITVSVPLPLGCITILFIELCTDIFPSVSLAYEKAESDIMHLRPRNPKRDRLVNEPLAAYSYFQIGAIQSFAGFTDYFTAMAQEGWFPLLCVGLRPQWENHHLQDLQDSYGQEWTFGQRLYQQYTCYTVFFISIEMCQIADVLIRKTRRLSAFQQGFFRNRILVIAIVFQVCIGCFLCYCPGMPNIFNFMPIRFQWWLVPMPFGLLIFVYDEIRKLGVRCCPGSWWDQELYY
T1 sequence (P18434 whole entry partner): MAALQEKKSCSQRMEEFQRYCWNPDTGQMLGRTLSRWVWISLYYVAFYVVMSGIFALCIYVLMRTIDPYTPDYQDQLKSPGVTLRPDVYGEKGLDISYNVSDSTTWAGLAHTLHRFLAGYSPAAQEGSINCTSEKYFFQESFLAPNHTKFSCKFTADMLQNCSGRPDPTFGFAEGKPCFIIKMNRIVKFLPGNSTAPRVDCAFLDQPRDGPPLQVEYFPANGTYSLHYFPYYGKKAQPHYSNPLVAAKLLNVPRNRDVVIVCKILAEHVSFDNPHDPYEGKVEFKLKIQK

As to `CNCc1cc(S(=O)(=O)c2ccc(OC)cc2)n(-c2cccnc2F)n1.Cl` [Example 2, 1-{1-(2-fluoropyridin-3-yl)-5-[(4-methoxyphenyl)sulfonyl]-1H-pyrazol-3-yl}-N-methylmethanamine hydrochloride], in the data set with anesthetized rat, the “acid secretion inhibitory rate (%, 1 mg/kg, intravenous administration, rat)” value is 82%. Also, at H^+/K^+-ATPase, the IC50 turned out to be 350 nM.
For the molecule `CNCc1cc(S(=O)(=O)c2cccc(C#N)c2)n(-c2cccnc2F)n1.Cl` [Example 4, 3-({1-(2-fluoropyridin-3-yl)-3-[(methylamino)methyl]-1H-pyrazol-5-yl}sulfonyl)benzonitrile hydrochloride], the “acid secretion inhibitory rate (%, 1 mg/kg, intravenous administration, rat)” value in the data set with anesthetized rat is listed as 99%. Besides, inhibition at H^+/K^+-ATPase was half-maximal at 230 nM (IC50). The “ATP content (%, 100 μM)” value in the data set on HepG2 stood at 98.5%. The “Caspase-3/7 activity (%, 100 μM)” value with Caspase-3/7 was determined as 1.0%.
In the case of `CNCc1cc(S(=O)(=O)c2cccc(C)c2)n(-c2cccnc2F)n1.Cl` [Example 3, 1-{1-(2-fluoropyridin-3-yl)-5-[(3-methylphenyl)sulfonyl]-1H-pyrazol-3-yl}-N-methylmethanamine hydrochloride], in the data set with anesthetized rat, the “acid secretion inhibitory rate (%, 1 mg/kg, intravenous administration, rat)” value came to 95%. Further, half-maximal inhibition against H^+/K^+-ATPase (IC50) was put at 88 nM. The “ATP content (%, 100 μM)” value in the data set with HepG2 is 90.1%. Further, the “Caspase-3/7 activity (%, 100 μM)” value in the data set on Caspase-3/7 is on record as −0.2%.
For the molecule `CNCc1cc(S(=O)(=O)c2ccc(F)cc2)n(-c2cccnc2F)n1.Cl` [Example 1, 1-{5-[(4-fluorophenyl)sulfonyl]-1-(2-fluoropyridin-3-yl)-1H-pyrazol-3-yl}-N-methylmethanamine hydrochloride], the “acid secretion inhibitory rate (%, 1 mg/kg, intravenous administration, rat)” value in the data set with anesthetized rat came out at 98%. At H^+/K^+-ATPase, half-maximal inhibition (IC50) was put at 120 nM. The “ATP content (%, 100 μM)” value in the data set on HepG2 amounted to 95.9%. Also, in the data set with Caspase-3/7, the “Caspase-3/7 activity (%, 100 μM)” value came to 0.1%.
